For assay [1], the target named is Serine/threonine-protein kinase N1 (Homo sapiens, UniProt Q16512).
Assay [2] concerns the target Calcium/calmodulin-dependent protein kinase type II subunit gamma (Homo sapiens, UniProt Q13555).
Assay [3] addresses Tyrosine-protein kinase SYK (Homo sapiens, UniProt P43405).
Assay [4] has as its target T1, General transcription and DNA repair factor IIH helicase subunit XPD (Homo sapiens, UniProt P18074).
T1 sequence (P18074 whole entry): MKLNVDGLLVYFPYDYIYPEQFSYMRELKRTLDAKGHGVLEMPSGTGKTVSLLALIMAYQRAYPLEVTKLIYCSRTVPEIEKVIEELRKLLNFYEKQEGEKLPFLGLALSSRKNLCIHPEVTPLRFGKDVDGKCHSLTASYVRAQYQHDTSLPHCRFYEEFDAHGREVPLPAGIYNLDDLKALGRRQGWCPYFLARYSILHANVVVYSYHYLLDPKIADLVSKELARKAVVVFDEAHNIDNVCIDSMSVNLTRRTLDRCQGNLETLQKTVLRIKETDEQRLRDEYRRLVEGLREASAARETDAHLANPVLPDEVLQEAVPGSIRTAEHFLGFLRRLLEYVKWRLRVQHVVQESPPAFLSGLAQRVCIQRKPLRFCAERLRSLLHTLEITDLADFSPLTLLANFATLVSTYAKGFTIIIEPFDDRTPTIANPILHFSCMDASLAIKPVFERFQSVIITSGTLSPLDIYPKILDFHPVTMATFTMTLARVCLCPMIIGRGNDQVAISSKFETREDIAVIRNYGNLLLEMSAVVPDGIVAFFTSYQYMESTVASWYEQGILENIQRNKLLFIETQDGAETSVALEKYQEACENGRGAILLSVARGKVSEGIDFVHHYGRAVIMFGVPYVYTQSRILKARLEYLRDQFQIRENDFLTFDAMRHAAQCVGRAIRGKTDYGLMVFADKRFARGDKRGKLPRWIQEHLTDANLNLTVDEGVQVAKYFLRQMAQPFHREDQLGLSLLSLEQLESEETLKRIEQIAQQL
Particulars: read-out: Kd apparent; k-562, colo 205, sk-n-be(2) and mv-4-11.

For assay [5], the target named is 5'-AMP-activated protein kinase catalytic subunit alpha-1 (Homo sapiens, UniProt Q13131).
Assay [6] has as its target AP2-associated protein kinase 1 (Homo sapiens, UniProt Q2M2I8).
In assay [7] the target is T2, Phenylalanine--tRNA ligase beta subunit (Homo sapiens, UniProt Q9NSD9).
T2 sequence (Q9NSD9 whole entry): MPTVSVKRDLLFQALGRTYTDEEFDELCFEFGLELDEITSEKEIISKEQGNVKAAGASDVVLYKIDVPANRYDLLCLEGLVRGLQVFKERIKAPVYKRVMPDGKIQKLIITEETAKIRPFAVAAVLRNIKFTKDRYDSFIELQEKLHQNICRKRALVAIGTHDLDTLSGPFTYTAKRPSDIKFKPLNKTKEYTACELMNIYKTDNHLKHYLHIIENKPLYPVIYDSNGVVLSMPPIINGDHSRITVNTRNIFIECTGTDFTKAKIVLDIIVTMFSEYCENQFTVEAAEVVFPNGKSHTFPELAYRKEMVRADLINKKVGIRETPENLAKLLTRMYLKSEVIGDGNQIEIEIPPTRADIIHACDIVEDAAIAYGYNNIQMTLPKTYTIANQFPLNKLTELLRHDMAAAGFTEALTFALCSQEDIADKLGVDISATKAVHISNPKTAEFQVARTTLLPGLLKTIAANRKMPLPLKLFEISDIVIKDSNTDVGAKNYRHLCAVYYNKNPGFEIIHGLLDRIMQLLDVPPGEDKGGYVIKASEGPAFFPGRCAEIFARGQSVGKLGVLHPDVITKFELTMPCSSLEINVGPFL

The target in a further assay is T3, Ephrin type-B receptor 6 (Homo sapiens, UniProt O15197).
T3 sequence (O15197 whole entry): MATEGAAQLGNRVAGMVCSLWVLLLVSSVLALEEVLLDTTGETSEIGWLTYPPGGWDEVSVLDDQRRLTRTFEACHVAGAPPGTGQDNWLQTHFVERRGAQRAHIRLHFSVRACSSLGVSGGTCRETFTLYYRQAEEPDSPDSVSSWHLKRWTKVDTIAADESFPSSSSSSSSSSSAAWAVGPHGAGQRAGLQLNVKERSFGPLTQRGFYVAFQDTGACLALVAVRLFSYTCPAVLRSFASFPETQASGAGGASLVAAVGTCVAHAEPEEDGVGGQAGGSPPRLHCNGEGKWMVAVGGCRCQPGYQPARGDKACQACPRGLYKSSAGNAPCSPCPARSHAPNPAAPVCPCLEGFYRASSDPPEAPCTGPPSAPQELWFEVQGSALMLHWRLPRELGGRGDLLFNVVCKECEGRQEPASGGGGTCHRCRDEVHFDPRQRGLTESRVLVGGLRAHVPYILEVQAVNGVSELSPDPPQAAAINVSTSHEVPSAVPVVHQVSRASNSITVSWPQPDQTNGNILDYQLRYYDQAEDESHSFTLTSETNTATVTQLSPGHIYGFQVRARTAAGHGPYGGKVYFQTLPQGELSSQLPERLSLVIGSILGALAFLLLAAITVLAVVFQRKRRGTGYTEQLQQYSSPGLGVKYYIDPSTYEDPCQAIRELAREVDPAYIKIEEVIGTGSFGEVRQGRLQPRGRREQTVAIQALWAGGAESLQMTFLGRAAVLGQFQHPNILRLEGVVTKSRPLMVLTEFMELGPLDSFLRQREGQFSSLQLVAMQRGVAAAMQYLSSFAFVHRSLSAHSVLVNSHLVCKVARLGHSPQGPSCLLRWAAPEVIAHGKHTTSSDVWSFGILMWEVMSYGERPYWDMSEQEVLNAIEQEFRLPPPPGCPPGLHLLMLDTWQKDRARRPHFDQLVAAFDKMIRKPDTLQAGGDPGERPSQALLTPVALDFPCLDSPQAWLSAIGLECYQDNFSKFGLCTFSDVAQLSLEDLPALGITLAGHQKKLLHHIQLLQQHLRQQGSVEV

For assay [8], the target named is Serine/threonine-protein kinase N2 (Homo sapiens, UniProt Q16513).
Chain of Serine/threonine-protein kinase N2 (Q16513 whole entry): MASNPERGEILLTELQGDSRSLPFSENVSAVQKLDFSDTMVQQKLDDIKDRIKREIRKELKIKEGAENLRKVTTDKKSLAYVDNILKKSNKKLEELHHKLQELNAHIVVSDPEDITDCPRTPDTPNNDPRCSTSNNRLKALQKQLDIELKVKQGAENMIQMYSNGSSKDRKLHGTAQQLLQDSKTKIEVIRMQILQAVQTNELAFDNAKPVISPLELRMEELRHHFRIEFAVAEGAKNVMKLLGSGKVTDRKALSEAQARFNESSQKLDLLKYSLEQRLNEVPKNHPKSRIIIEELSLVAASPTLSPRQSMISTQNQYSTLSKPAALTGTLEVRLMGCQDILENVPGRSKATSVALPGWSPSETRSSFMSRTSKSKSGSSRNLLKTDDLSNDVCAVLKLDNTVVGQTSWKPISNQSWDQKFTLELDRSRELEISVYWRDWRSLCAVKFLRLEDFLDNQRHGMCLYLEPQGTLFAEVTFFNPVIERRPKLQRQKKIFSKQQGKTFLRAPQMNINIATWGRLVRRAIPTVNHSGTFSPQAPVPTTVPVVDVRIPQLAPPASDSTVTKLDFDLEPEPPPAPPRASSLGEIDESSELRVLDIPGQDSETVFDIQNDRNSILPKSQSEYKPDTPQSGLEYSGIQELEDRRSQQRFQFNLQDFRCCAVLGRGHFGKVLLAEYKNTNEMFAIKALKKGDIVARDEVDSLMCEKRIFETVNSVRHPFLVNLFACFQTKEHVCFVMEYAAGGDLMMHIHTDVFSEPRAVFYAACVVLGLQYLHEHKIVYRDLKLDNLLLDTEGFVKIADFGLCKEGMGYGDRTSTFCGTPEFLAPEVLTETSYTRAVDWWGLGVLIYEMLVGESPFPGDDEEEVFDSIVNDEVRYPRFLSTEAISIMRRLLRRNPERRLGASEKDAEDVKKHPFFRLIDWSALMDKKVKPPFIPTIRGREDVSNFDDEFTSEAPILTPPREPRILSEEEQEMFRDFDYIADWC
Assay [9] has as its target Tyrosine-protein kinase Fer (Homo sapiens, UniProt P16591).
The next assay deals with LIM domain kinase 1 (Homo sapiens, UniProt P53667).
Chain of LIM domain kinase 1 (P53667 whole entry, the tested form may be a part): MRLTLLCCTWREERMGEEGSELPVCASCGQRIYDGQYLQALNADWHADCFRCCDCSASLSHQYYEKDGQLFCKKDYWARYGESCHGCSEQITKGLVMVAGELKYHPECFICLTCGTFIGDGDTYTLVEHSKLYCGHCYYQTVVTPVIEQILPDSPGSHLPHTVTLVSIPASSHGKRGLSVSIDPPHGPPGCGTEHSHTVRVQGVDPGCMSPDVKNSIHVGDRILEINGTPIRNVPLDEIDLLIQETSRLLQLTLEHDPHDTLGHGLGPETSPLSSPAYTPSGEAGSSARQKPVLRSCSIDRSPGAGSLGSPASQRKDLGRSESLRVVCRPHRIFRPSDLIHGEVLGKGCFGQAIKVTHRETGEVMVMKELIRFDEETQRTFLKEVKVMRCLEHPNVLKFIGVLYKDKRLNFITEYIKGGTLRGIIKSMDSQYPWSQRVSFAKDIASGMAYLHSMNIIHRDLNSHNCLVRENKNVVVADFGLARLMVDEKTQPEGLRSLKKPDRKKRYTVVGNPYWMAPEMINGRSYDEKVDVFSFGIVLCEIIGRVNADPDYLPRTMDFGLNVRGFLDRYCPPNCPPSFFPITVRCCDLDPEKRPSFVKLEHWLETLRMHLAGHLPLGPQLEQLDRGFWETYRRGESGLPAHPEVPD

Active and inactive are the calls of the source. For most assays here, no stated cut-off is given here; in the data, actives have a measured Kd and inactives only a lower limit.

Chain of AP2-associated protein kinase 1 (Q2M2I8 whole entry): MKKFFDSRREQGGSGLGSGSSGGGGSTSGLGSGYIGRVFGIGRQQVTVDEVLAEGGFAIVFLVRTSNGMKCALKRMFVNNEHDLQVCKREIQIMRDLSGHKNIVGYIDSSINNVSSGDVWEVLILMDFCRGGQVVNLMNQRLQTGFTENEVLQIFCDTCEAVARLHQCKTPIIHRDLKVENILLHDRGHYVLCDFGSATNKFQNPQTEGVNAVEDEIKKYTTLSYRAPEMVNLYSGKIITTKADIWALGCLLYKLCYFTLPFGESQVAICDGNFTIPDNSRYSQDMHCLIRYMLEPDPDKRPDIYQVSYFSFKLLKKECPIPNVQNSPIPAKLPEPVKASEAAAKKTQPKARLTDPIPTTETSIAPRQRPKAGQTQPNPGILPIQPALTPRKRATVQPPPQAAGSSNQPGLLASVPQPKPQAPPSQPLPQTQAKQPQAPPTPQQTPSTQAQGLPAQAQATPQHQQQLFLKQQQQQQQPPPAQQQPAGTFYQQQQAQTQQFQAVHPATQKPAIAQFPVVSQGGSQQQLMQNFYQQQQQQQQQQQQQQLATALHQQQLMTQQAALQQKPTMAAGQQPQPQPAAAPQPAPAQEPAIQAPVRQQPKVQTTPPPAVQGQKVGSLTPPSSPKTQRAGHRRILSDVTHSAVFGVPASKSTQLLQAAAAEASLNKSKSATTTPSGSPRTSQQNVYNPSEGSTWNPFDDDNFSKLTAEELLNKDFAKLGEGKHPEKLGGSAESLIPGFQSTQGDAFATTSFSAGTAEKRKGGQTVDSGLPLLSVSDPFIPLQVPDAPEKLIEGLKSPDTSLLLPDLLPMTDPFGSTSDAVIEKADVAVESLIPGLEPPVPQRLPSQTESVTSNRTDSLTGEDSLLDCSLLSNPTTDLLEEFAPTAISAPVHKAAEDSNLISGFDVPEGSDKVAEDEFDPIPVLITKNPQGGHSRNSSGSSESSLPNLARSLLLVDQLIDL
Chain of Calcium/calmodulin-dependent protein kinase type II subunit gamma (Q13555 whole entry): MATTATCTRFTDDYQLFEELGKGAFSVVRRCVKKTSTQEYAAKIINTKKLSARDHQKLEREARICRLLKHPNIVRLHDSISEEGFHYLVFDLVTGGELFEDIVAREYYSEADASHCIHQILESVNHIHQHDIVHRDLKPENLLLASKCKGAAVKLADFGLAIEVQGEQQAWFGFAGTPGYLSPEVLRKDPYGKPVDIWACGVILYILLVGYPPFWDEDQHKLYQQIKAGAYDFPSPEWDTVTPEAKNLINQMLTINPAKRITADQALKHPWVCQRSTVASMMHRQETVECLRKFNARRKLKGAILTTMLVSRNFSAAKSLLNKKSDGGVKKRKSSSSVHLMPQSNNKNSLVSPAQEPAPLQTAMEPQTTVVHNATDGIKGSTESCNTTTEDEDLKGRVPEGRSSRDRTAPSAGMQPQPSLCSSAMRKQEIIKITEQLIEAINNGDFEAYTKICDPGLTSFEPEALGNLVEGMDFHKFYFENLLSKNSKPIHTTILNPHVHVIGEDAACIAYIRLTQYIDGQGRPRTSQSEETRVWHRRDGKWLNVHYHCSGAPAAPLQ
Chain of Tyrosine-protein kinase Fer (P16591 whole entry, the tested form may be a part): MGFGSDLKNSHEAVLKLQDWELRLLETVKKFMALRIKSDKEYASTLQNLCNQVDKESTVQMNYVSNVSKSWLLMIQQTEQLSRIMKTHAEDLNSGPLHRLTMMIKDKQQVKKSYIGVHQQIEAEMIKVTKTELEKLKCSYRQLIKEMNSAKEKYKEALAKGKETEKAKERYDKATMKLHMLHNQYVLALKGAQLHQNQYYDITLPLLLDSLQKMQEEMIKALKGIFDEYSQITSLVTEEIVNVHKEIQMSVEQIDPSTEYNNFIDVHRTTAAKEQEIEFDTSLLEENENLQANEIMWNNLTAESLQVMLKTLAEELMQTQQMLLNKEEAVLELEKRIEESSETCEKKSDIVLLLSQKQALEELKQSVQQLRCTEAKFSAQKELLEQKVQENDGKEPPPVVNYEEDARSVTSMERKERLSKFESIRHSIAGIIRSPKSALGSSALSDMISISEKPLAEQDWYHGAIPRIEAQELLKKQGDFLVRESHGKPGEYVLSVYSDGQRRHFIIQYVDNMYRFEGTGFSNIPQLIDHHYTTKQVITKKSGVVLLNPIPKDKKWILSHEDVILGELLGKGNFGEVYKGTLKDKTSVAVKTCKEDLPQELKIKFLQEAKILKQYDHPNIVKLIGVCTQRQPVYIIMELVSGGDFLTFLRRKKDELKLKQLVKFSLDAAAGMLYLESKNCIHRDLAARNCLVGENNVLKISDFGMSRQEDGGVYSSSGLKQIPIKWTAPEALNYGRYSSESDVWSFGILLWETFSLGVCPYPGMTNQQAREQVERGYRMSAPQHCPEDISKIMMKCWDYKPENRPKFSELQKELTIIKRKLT
Chain of Serine/threonine-protein kinase N1 (Q16512 whole entry): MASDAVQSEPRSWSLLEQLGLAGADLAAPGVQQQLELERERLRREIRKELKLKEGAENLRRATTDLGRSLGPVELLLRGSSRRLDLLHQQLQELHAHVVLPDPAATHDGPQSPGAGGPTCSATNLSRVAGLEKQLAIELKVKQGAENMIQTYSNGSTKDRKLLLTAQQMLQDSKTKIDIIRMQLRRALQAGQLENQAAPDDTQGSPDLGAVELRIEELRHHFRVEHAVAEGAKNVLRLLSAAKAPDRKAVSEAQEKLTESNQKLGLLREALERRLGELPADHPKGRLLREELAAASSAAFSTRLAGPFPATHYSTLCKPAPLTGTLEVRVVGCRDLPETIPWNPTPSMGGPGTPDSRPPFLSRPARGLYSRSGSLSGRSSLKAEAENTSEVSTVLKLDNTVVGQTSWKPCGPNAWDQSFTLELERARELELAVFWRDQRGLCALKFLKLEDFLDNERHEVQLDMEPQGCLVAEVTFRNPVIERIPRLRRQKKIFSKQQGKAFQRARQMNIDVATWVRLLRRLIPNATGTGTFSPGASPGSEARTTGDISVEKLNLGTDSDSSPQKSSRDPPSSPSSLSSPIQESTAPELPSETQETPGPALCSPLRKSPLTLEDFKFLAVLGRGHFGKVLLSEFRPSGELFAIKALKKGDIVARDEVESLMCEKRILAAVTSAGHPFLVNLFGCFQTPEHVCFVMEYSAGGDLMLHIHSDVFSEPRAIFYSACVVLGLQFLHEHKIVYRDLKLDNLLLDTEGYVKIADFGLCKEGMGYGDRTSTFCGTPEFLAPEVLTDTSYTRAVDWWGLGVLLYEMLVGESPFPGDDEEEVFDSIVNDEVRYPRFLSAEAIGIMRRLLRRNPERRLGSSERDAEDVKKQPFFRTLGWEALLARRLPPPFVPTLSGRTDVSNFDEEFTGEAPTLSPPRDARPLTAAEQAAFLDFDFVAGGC

`C[C@@H](Nc1cc(F)cc(F)c1)c1cc(C(=O)N(C)C)cc2c(=O)cc(N3CCOCC3)oc12` [AZD-8186]: the Kd in assay [1], in assay [2], in assay [3], in assay [4], in [5] and in assay [6] was > 30 µM (inactive) in each case. Besides, the Kd (in assay [7]; on Ephrin type-B receptor 6; in assay [8]; in [9]; at LIM domain kinase 1) was > 30 µM (inactive) in each case.
Consider `COc1cc(OC)c(/C=C/S(=O)(=O)Cc2ccc(OC)c(NCC(=O)O)c2)c(OC)c1` [RIGOSERTIB], for which the Kd in assay [1], in [2], in assay [3], in [4], in assay [5] and in [6] was > 30 µM (inactive) each time. Further, the Kd (in [7]; on Ephrin type-B receptor 6; in assay [8]; in [9]; at LIM domain kinase 1) was > 30 µM (inactive) in each case.
Regarding `CC[C@H](Nc1ncnc2[nH]cnc12)c1nc2cccc(F)c2c(=O)n1-c1ccccc1` [IDELALISIB], the Kd in assay [1], in assay [2], in assay [3], in assay [5], in assay [6] and in assay [7] was > 30 µM (inactive) in each case. For the same molecule, the Kd (on Ephrin type-B receptor 6; in [8]; in assay [9]; at LIM domain kinase 1) was > 30 µM (inactive) each time.
`C[C@@H](c1ccc2nccn2c1)n1nnc2ncc(-c3cnn(C)c3)nc21` [SAVOLITINIB]: the Kd in assay [1], in assay [2], in assay [3], in [4], in assay [5] and in assay [6] was > 30 µM (inactive) each time. For the same molecule, the Kd (in assay [7]; at Ephrin type-B receptor 6; in assay [8]; in [9]; at LIM domain kinase 1) was > 30 µM (inactive) in each case.
As to `CN1N=C(N)c2cn([C@@H]3O[C@H](COP(=O)(O)O)[C@@H](O)[C@H]3O)c3ncnc1c23` [TRICIRIBINE PHOSPHATE], the Kd in assay [1], in assay [2], in assay [3], in assay [4], in [5] and in [6] was > 30 µM (inactive) throughout. The Kd (in assay [7]; in assay [8]; in assay [9]; on LIM domain kinase 1) was > 30 µM (inactive) in each case.
As for `CNC(=O)CN1CCC(Oc2cc3c(Nc4cccc(Cl)c4F)ncnc3cc2OC)CC1` [SAPITINIB], the Kd in assay [1], in [2], in assay [3], in assay [4], in assay [5] and in [6] was > 30 µM (inactive) throughout. The Kd (in assay [7]; on Ephrin type-B receptor 6; in [8]; in assay [9]; at LIM domain kinase 1) was > 30 µM (inactive) throughout.
Regarding `O=C(c1ccc(F)c(F)c1Nc1ccc(I)cc1F)N1CC(O)([C@@H]2CCCCN2)C1` [COBIMETINIB], the Kd in assay [1], in assay [2], in assay [3], in [4], in assay [5] and in assay [6] was > 30 µM (inactive) in each case. Also, the Kd (in assay [7]; on Ephrin type-B receptor 6; in assay [8]; in [9]; on LIM domain kinase 1) was > 30 µM (inactive) throughout.
On to `Cc1ccc(S(=O)(=O)Nc2nc3ccccc3nc2Nc2ccc3nsnc3c2)cc1`, for which the Kd in assay [1], in assay [2], in assay [3], in [4], in assay [5] and in assay [6] was > 30 µM (inactive) each time. The Kd (in assay [7]; at Ephrin type-B receptor 6; in assay [8]; in [9]; on LIM domain kinase 1) was > 30 µM (inactive) each time.
For the molecule `CNC(=O)c1cc(Oc2ccc(NC(=O)Nc3ccc(Cl)c(C(F)(F)F)c3)c(F)c2)ccn1` [REGORAFENIB], the Kd in assay [1], in assay [2], in [3], in assay [5], in [6] and in assay [7] was > 30 µM (inactive) in each case. The Kd is > 30 µM (inactive) at Ephrin type-B receptor 6, > 30 µM (inactive) in [8], > 30 µM (inactive) in assay [9] and 0.616 µM (active) at LIM domain kinase 1.
In the case of `CC[C@@H]1C(=O)N(C)c2cnc(Nc3ccc(C(=O)N[C@H]4CC[C@H](N5CCN(CC6CC6)CC5)CC4)cc3OC)nc2N1C(C)C` [VOLASERTIB], the Kd in [1], in [2], in [3], in assay [5], in assay [6] and in assay [7] was > 30 µM (inactive) each time. Besides, the Kd (at Ephrin type-B receptor 6; in assay [8]; in assay [9]; at LIM domain kinase 1) was > 30 µM (inactive) in each case.

The values are drawn from ChEMBL document CHEMBL3991601, “The target landscape of clinical kinase drugs” (Science, 2017).
